Data on seven compounds can be found in US20230357240A1, “NOVEL N-HETEROCYCLIC BET BROMODOMAIN INHIBITOR, AND PREPARATION METHOD THEREOF AND MEDICAL USE THEREOF” (Chengdu Easton Biopharmaceuticals Co., Ltd., priority 2020, published 2023).

One data set concerns MV4-11 cell. Put plainly: MV4-11 cell proliferation experiment (CCK-8 cell viability). It counts as cell-based. To be noted: Homo sapiens, MV4-11 cells, 72-hour culture. As to the method:
EXAMPLE 9 Cell Experiment (MV4-11 Cell Proliferation Experiment)
Determination of Cell Viability with CCK-8 Reagent
(1) MV4-11 cell suspension was pipetted from a culture flask into a 15 mL centrifuge tube, and the cell suspension was centrifuged at 1000 rpm for 4 minutes.
(2) A supernatant in the centrifuge tube was discarded, and an appropriate amount of fresh complete medium (IMDM+10% FBS+1% P/S) was added to resuspend the cells. 20 μL of cell suspension was collected, 20 μL of trypan blue was added, and CounterStar was used for counting.
(3) A required cell suspension volume and complete medium volume were calculated according to viable cell density and the required number of plated cells. MV4-11 cells were plated at a density of 1*10^4 cells/well in 100 μL/well.
(4) 100 μL of the above cell suspension was pipetted into a 96-well plate by using an electric pipette. 150 μL of complete medium was added to blank control wells. PBS was added to peripheral wells of the 96-well plate, to avoid liquid evaporation. The 96-well plate was cultured overnight in an incubator.
Day 2: Compound Preparation:
(1) The compound of the present application dissolved in DMSO and the positive control substance ABBV-744 were fetched, and subjected to serial dilution (dilution in column A, column B, . . . , column J sequentially from left to right in a 96-well PCR plate).
An initial concentration of the solution in column A is 10 mM;
Column B: 2 μL of the solution in column A was diluted with 8 μL of DMSO to obtain a final concentration of 2000 μM;
Column C: 2 μL of the solution in column B was diluted with 8 μL of DMSO to obtain a final concentration of 400 μM;
Column D: 2 μL of the solution in column C was diluted with 8 μL of DMSO to obtain a final concentration of 80 μM;
Column E: 2 μL of the solution in column D was diluted with 8 μL of DMSO to obtain a final concentration of 16 μM;
Column F: 2 μL of the solution in column E was diluted with 8 μL of DMSO to obtain a final concentration of 3.2 μM;
Column G: 2 μL of the solution in column F was diluted with 8 μL of DMSO to obtain a final concentration of 0.64 μM;
Column H: 2 μL of the solution in column G was diluted with 8 μL of DMSO to obtain a final concentration of 0.128 μM;
Column I: 2 μL of the solution in column H was diluted with 8 μL of DMSO to obtain a final concentration of 0.0256 μM; and
Column J: 2 μL of the solution in column I was diluted with 8 μL of DMSO to obtain a final concentration of 0.00512 μM.
The suspension was centrifuged for 1 minute at 1000 rpm by using a low-speed centrifuge.
(2) 3×Compound Preparation: (Diluted in a 96-Well Cell Culture Plate)
3 μL of each of the solutions in columns B to J was pipetted into […] of complete medium by a 10 μL manual pipette to obtain 3×compound solutions with a final concentration of 30000, 6000, 1200, 240, 48, 9.6, 1.92, 0.384 and 0.0768 nM, respectively; and 3 μL of DMSO was pipetted into […] of complete medium as a control. The resulting 96-well cell culture plate was put on an oscillator to be oscillated at 500 rpm for 30 minutes.
(1) The prepared 3×compound solutions with the above concentrations were each pipetted by a manual pipette with its volume set to 50 μL into a corresponding well of the 96-well plate after overnight culture on the first day, and the total culture volume of each well was 150 μL. The final concentrations of the compounds in the 96-well plate were 10 μM, 2 μM, 400 nM, 80 nM, 16 nM, 3.2 nM, 0.64 nM, 0.128 nM and 0.0256 nM, respectively. The resulting 96-well plate was put on an oscillator to be oscillated at 500 rpm for 10 minutes.
(2) The 96-well plate as prepared was put in a CO2 incubator for 72-hour culture.
(1) CCK-8 test solution was pipetted into the 96-well cell culture plate in an amount of 15 μL/well by a pipette with a volume set to 15 μL.
(2) The 96-well plate was put in the CO2 incubator for 4-hour culture. […]

For another data set, the system named is MV4-11 xenograft tumor. Put plainly: In vivo efficacy test, MV4-11 xenograft tumor model in mice. The note with it: NOD-SCID mice, 5 mg/kg qd gavage, 14 days. The source says: EXAMPLE 11 In Vivo Efficacy Test of the Compound of the Present Application
Objective: To test the inhibitory effect of the test compound on the growth of xenograft tumor in nude mice with MV4-11 leukemia.
Method: NOD-SCID mice were subcutaneously inoculated with MV4-11 cells to establish an MV4-11 xenograft tumor model in mice. 16 days after inoculation (d16), average tumor volume was about 210 mm^3. According to the tumor volumes, the tumor-bearing mice were grouped in a random block method, with 6 mice in each group. The groups included a solvent control group, an ABBV-744 control group, and a test sample group, the dosage was 5 mg/kg mouse body weight, and the dose volume was 10 mL/kg mouse body weight, once a day. Each group was gavage administered for 14 consecutive days, and the solvent control group was gavage administered with a blank solvent (20% […] solution). Tumor volumes were measured twice weekly after administration of the test drug. The animals were euthanized after the test.

The target of another data set is T1, hERG (Homo sapiens, UniProt Q12809).
T1 construct: expressed in transfected cells; host or cells: HEK293 cells stably expressing hERG
T1 sequence (Q12809 whole entry): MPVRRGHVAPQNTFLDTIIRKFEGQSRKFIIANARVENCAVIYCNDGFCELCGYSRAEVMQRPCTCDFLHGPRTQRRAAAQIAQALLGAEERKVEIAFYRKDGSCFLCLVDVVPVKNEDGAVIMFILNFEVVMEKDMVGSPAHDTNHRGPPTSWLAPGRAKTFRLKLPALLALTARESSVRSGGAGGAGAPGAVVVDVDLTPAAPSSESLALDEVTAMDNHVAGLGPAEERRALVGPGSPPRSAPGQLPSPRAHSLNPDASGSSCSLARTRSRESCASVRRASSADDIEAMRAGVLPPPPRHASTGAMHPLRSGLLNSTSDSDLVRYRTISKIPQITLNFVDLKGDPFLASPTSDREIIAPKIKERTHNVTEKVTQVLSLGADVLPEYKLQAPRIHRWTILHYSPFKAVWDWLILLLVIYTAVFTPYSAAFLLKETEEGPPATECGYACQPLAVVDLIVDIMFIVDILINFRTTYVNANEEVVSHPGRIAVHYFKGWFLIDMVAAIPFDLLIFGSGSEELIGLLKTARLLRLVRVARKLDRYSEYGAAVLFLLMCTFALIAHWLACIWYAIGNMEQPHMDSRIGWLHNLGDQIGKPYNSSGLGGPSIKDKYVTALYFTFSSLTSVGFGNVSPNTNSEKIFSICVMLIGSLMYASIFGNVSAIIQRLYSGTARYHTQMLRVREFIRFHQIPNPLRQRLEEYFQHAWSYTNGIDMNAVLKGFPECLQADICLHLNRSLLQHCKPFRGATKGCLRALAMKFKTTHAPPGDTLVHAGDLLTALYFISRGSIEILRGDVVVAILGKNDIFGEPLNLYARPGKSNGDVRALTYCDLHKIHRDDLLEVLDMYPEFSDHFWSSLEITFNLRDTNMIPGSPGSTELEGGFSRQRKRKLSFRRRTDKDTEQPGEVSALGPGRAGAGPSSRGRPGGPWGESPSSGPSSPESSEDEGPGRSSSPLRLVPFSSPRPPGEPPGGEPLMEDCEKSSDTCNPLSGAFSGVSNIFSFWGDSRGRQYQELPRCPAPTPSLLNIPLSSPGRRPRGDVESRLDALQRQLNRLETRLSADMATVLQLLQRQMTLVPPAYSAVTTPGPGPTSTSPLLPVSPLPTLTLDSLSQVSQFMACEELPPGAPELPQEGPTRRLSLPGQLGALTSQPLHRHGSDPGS
Kind of data set: hERG inhibition test, whole-cell patch clamp in HEK293 cells stably expressing the hERG ion channel. It counts as cell-based. The note with it: human, HEK293 cells stably expressing the hERG ion channel. The method, then:
(§1) An hERG current was recorded by the whole-cell patch clamp technique. A suspension of HEK293 cells stably expressing the hERG ion channel was added to a 35 mm culture dish, and the culture dish was put on a stage of an inverted microscope. […] The pulse program was repeated every 15 seconds throughout the whole test. After the current became stable, the administration method of continuous extracellular perfusion from low concentration to high concentration was used, and the perfusion started from low concentration and continued until the drug effect was stable, and then the perfusion of the next concentration was performed.
(§2) After the test, stimulus release and signal acquisition were carried out through PatchMaster software. Graphpad Prism 8.0 was used for further data analysis and curve fitting. Effects of each compound at different concentrations were represented with an inhibition rate of the tail current. Inhibition rate=(peak tail current before administration—peak tail current after administration)/peak tail current before administration x 100%. Half-maximal inhibitory concentration IC50 of the test samples was obtained by the fitting analysis with Hill equation.

The next data set concerns the target T2, hERG ion channel (Homo sapiens, UniProt Q12809).
T2 construct: expressed in transfected cells; host or cells: HEK293 cells stably expressing hERG
Described as above. It counts as cell-based. To be noted: tail current, Hill equation fit. As to the method: as §1, §2

[1] abbreviates: read-out: Average hERG inhibition rate.
Setting [2] is: read-out: hERG Inhibition rate, Cell 1.
[3] abbreviates: read-out: hERG Inhibition rate, Cell 2.

Molecules are shown by their SMILES. pIC50: −log10 of the molar value. Read-outs that look alike come from different tables or passages of the source.

T2 sequence (Q12809 whole entry): as above

In general, pIC50 refers to the negative decadic logarithm of the IC50, by convention in mol/L. As a reminder, the inhibition is the drop in the measured response relative to a control, in per cent. `CCNC(=O)c1cc2c(-c3cc(C(C)(C)O)ccc3Oc3c(C)cc(F)cc3C)cn(C)c(=O)c2[nH]1` [ABBV-744, reference compound] gave a pIC50 with MV4-11 cell of 8.14. Besides, in the data set with MV4-11 xenograft tumor, the “Relative tumor proliferation rate T/C” value is given as 45.98%. At hERG (setting [1]), the inhibition at 0.37 µM stood at 5.35%, the inhibition at 1.11 µM amounted to 17.4%, the inhibition at 3.33 µM was 54.7% and the inhibition at 10 µM was determined as 87.6%. Moreover, the inhibition at 30 µM at hERG (setting [1]) is 99.1%. Besides, on hERG (setting [2]), the inhibition at 0.37 µM is 8.24%, the inhibition at 1.11 µM was found to be 23%, the inhibition at 3.33 µM is 57.7% and the inhibition at 10 µM came out at 87.9%. Besides, at hERG (setting [2]), the inhibition at 30 µM came to 99.4%. In addition, at hERG (setting [3]), the inhibition at 0.37 µM is 2.46%, the inhibition at 1.11 µM was 11.8%, the inhibition at 3.33 µM is 51.7% and the inhibition at 10 µM is 87.3%. The inhibition at 30 µM at hERG (setting [3]) came to 98.7%. For the same compound, the pIC50 against hERG ion channel is 5.51.

As to `CCNC(=O)c1cc2c(-c3sc(C(C)(C)O)cc3N3CCc4cccc(F)c43)cn(C)c(=O)c2[nH]1` [Compound 2, N-ethyl-4-(3-(7-fluoroindolin-1-yl)-5-(2-hydroxypropyl-2-yl)thiophen-2-yl)-6-methyl-7-oxo-6,7-dihydro-1H-pyrrolo[2,3-c]pyridine-2-carboxamide], in the data set on MV4-11 cell, the pIC50 is 7.62.

For the compound `CCNC(=O)c1cc2c(-c3sc(C(C)(C)O)cc3N3CCc4cccc(C)c43)cn(C)c(=O)c2[nH]1` [Compound 3, N-ethyl-4-(5-(2-hydroxypropyl-2-yl)-3-(7-methylindolin-1-yl)thiophen-2-yl)-6-met hyl-7-oxo-6,7-dihydro-1H-pyrrolo[2,3-c]pyridine-2-carboxamide], the pIC50 in the data set on MV4-11 cell is 7.40.

`CCNC(=O)c1cc2c(-c3sc(C(C)(C)O)cc3N3CCc4cc(F)ccc43)cn(C)c(=O)c2[nH]1` [Compound 4, N-ethyl-4-(3-(5-fluoroindolin-1-yl)-5-(2-hydroxypropyl-2-yl)thiophen-2-yl)-6-methyl-7-oxo-6,7-dihydro-1H-pyrrolo[2,3-c]pyridine-2-carboxamide]: the pIC50 with MV4-11 cell was 8.20.

With `CCNC(=O)c1cc2c(-c3sc(C(C)(C)O)cc3N3CCc4cc(C(F)(F)F)ccc43)cn(C)c(=O)c2[nH]1` [Compound 5, N-ethyl-4-(5-(2-hydroxypropyl-2-yl)-3-(5-trifluoromethylindolin-1-yl)thiophen-2-y I)-6-methyl-7-oxo-6,7-dihydro-1H-pyrrolo[2,3-c]pyridine-2-carboxamide], the negative logarithm of the IC50 (pIC50) in the data set on MV4-11 cell was 7.92.

Regarding `CCNC(=O)c1cc2c(-c3sc(C(C)(C)O)cc3N3CCCc4cc(F)ccc43)cn(C)c(=O)c2[nH]1` [Compound 6, N-ethyl-4-(5-(2-hydroxypropyl-2-yl)-3-(6-fluoro-3,4-dihydroquinolin-1(2H)-yl)thiophen-2-yl)-6-methyl-7-oxo-6,7-dihydro-1H-pyrrolo[2,3-c]pyridine-2-carboxamide], the pIC50 with MV4-11 cell is 8.09.

In the data set with MV4-11 cell, `CCNC(=O)c1cc2c(-c3sc(C(C)(C)O)cc3N3CCc4cccc(C(F)(F)F)c43)cn(C)c(=O)c2[nH]1` [Compound 7, N-ethyl-4-(5-(2-hydroxypropyl-2-yl)-3-(7-(trifluoromethyl)indolin-1-yl)thiophen-2-yl)-6-methyl-7-oxo-6,7-dihydro-1H-pyrrolo[2,3-c]pyridine-2-carboxamide] gave a pIC50 of 7.76.
